Values joined by “and” are separate entries in the source; they are usually repeats but may differ in a detail not shown here. Equal entries are not always repeated. Structures can show the parent of a compound that is named as a salt. Where two headings read alike, the source gives them in different places.
How the values were obtained:
serotonin (5-HT) = assay: content of serotonin (5-HT) by ELISA kit; type: in vivo, ICR mice; settings: Table 5; 10 mg/kg oral; control 636.2 ± 80.1
Experimental: (§1) The antidepressant activity of the drugs was evaluated by classic behavioral measurements, such as the forced swimming test (FST) and tail suspension test (TST). All the ICR mice were randomly divided into several groups (n = 8) as follows: a control group with stimulation and different test groups subjected to FST and TST after the oral administration of different drugs for 8 days, including fluoxetine (10 mg/kg), BZD (3 g/kg), ZD (3 g/kg), Baihe decoction (BD, 3 g/kg), PZ (21.2 mg/kg), XZ (21.2 mg/kg), SZ (21.2 mg/kg), timosaponin BII (10 mg/kg) and timosaponin BIII (10 mg/kg).
(§2) The contents of dopamine (DA) and serotonin (5-HT) in the plasma were determined using ELISA Kits (Shanghai Jianglai Biotech Co., Ltd., Shanghai, China) according to the manufacturer’s instructions.

ICR mice [1] = assay: tail suspension test (TST); type: in vivo
Experimental: as §1
(§3) The FST was performed according to a previously described method with minor modifications. Briefly, each mouse was individually placed in an open water-filled cylinder (H: 50 cm; Ø: 20 cm; water depth: 35 cm; temperature: 23–25 °C) and allowed to swim for a period of 6 min. The total time of immobility was recorded during the last 4 min of the testing duration. Immobility is defined as the mice floating in the water without movement. The TST was conducted as described in the literature. Briefly, the mice were suspended 20 cm above the floor for 6 min. The time of immobility was recorded after the first 2 min. Mice in a completely motionless state were considered immobile.

dopamine (DA) = assay: content of dopamine (DA) by ELISA kit; type: in vivo, ICR mice; settings: Table 5; 10 mg/kg oral; control 171.6 ± 54.5
Experimental: as §1, §2

ICR mice [2] = assay: forced swimming test (FST); type: in vivo
Experimental: as §1, §3

[3] = pharmacokinetic study of five major components after oral administration of BZD (HPLC-QQQ MS); type: in vivo, Sprague–Dawley (SD) rats; settings: for ER (liver extraction ratio): from portal vein plasma and systemic plasma
Experimental: The HPLC-QQQ MS method was developed according to a previous study in our group. Briefly, five compounds were simultaneously determined in plasma, liver and brain samples using a 1260 Series liquid chromatography system (Agilent Technologies, Palo Alto, CA, USA) coupled to a 6460 triple quadrupole mass spectrometer with an electrospray ionization source (Agilent Technologies, Palo Alto, CA, USA). Chromatographic separation was performed on an ACE Super C18 column (100 mm × 2.1 mm, 3.0 µm, Advanced Chromatography Technologies Ltd. Aberdeen, Scotland) at a temperature of 40 °C. The mobile phase consisted of water containing 0.1% formic acid (A) and acetonitrile containing 0.1% formic acid (B). The gradient program was performed as follows: 0–3 min, 92% A; 3.5–4.0 min, 88–60% A; 5.5–6 min, 60–55% A; 6.6–7 min, 55–5% A; 11–11.01 min, 5–92% A; 11.01–13.5 min, 92% A. The flow rate was set to 0.35 mL/min in the time range of 0–6.6 min and kept at 0.45 mL/min between 7 and 13.5 min. Five components were monitored in negative multiple reaction monitoring (MRM) mode. The parameters of the mass spectrometer were as follows: capillary voltage, 3500 V; nebulizer, 45 psi; gas temperature, 350 °C; gas flow rate, 12 L/min; sheath gas temperature, 400 °C; sheath gas flow rate, 8 L/min. MassHunter Workstation software (Agilent Technologies, Palo Alto, CA, USA) was used for system operation and data analysis.
All Sprague–Dawley (SD) rats and ICR mice were purchased from Shanghai SLAC Laboratory Animal Co., Ltd. and kept in the breeding room at 22 ± 2 °C and 50 ± 10% humidity in Shanghai Institute of Materia Medica (SIMM). The experimental protocols were approved by the Institutional Animal Care and Use Committee in SIMM. After 1 week of acclimation, all the SD rats were orally administered BZD (15 g/kg). The biological samples were collected from the rats after fasting for 12 h. After anaesthetization, the rats were dissected at 5 min, 15 min, 30 min, 1 h, 2 h, 4 h, 7 h, 10 h, 20 h and 40 h (n = 5 for each time-point). The hepatic portal vein plasma (2 mL) and the systemic plasma (6–8 mL) were subsequently harvested, and finally the liver and brain tissue samples were collected. The plasma sample were centrifuged at 9500×g for 5 min, and the tissue samples were washed with saline solution. All samples were stored at − 80 °C until analysis. The samples were prepared according to the method described in the previous study by our group.
A noncompartmental analysis was carried out using WinNonlin software (Pharsight 6.2, NC, USA) to calculate the PK parameters. The significance of the results in behavior assessment was analyzed by unpaired Student’s t-tests. A P value less than 0.05 was considered significant. The liver extraction ratio (ER) indicated the fraction of hepatic clearance and first-pass effect, and the calculation formula was as reported in a previous study by our group.

depressive rats = settings: cited from earlier work
[4] = Table 4, oral administration for 8 days, n = 8, 10 mg/kg, control 102.0 ± 16.9
[5] = Table 4, oral administration for 8 days, n = 8, 10 mg/kg, control 118.1 ± 24.3
[6] = Sprague-Dawley, rat, in vivo, po, 15 g/kg
[7] = Sprague-Dawley, rat, hepatic portal vein plasma, po, 15 g/kg, portal vein plasma, rats, oral BZD 15 g/kg, n = 5
[8] = Sprague-Dawley, rat, hepatic portal vein plasma, po, 15 g/kg, portal vein plasma, rats, oral BZD 15 g/kg, n = 5, read-out: AUC0–t
[9] = Sprague-Dawley, rat, hepatic portal vein plasma, po, 15 g/kg, portal vein plasma, rats, oral BZD 15 g/kg, n = 5, read-out: Cmax
[10] = Sprague-Dawley, rat, hepatic portal vein plasma, po, 15 g/kg, portal vein plasma, rats, oral BZD 15 g/kg, n = 5, read-out: Tmax
[11] = Sprague-Dawley, rat, liver, po, 15 g/kg, liver, rats, oral BZD 15 g/kg, n = 5, read-out: Cmax
[12] = Sprague-Dawley, rat, liver, po, 15 g/kg, liver, rats, oral BZD 15 g/kg, n = 5, read-out: Tmax
[13] = Sprague-Dawley, rat, liver, po, 15 g/kg, rats, oral BZD 15 g/kg, n = 5
[14] = Sprague-Dawley, rat, systemic plasma, po, 15 g/kg, systemic plasma, rats, oral BZD 15 g/kg, n = 5, read-out: AUC0–t
[15] = Sprague-Dawley, rat, systemic plasma, po, 15 g/kg, systemic plasma, rats, oral BZD 15 g/kg, n = 5, read-out: Cmax
[16] = Sprague-Dawley, rat, systemic plasma, po, 15 g/kg, systemic plasma, rats, oral BZD 15 g/kg, n = 5, read-out: Tmax
[17] = Sprague-Dawley, rat, systemic plasma, po, 15 g/kg, rats, oral BZD 15 g/kg, n = 5
[18] = cerebellum, rats, oral BZD 15 g/kg, n = 5
[19] = hippocampus, rats, oral BZD 15 g/kg, n = 5
[20] = liver, rats, oral BZD 15 g/kg, n = 5
[21] = portal vein plasma, rats, oral BZD 15 g/kg, n = 5
[22] = systemic plasma, rats, oral BZD 15 g/kg, n = 5

| Structure (SMILES) | Content (ng/g) 5-HT (serotonin (5-HT)) [ng/g] | Immobility time (mean ± SD, s) TST (ICR mice [1]; [4]) [s] | Content (ng/g) DA (dopamine (DA)) [ng/g] | Immobility time (mean ± SD, s) FST (ICR mice [2]; [5]) [s] | half-life [3, 7] [h] | AUC(0-t) [3, 8] [ng·h/mL] | Cmax [3, 9] [ng/mL] | Tmax [3, 10] [h] | Cmax [3, 11] [ng/g] | Tmax [3, 12] [h] | half-life [3, 13] [h] | AUC(0-t) [3, 14] [ng·h/mL] | Cmax [3, 15] [ng/mL] | Tmax [3, 16] [h] | half-life [3, 17] [h] | ER (liver extraction ratio) ([3]; rats, oral BZD 15 g/kg) [%] | other results |
| --- | --- | --- | --- | --- | --- | --- | --- | --- | --- | --- | --- | --- | --- | --- | --- | --- | --- |
| CNCCC(Oc1ccc(C(F)(F)F)cc1)c1ccccc1 (stereo not shown) [Fluoxetine, fluoxetine hydrochloride] | 731.3 ± 104.6 | 50.0 ± 22.2 | 215.9 ± 36.5 | 70.2 ± 21.2 |  |  |  |  |  |  |  |  |  |  |  |  | Immobility time (mean ± SD, s) TST (ICR mice [1]; Table 1, oral administration for 8 days, n = 8, fluoxetine 10 mg/kg, BZD, ZD, BD 3 g/kg, control 109.1 ± 15.5): 62.0 ± 36.2 s; Immobility time (mean ± SD, s) TST (ICR mice [1]; Table 2, oral administration for 8 days, n = 8, fluoxetine 10 mg/kg, SZ, PZ, XZ 21.2 mg/kg, control 118.6 ± 18.1): 69.5 ± 21.5 s; Immobility time (mean ± SD, s) FST (ICR mice [2]; Table 1, oral administration for 8 days, n = 8, fluoxetine 10 mg/kg, BZD, ZD, BD 3 g/kg, control 127.6 ± 40.9): 84.8 ± 15.2 s; Immobility time (mean ± SD, s) FST (ICR mice [2]; Table 2, oral administration for 8 days, n = 8, fluoxetine 10 mg/kg, SZ, PZ, XZ 21.2 mg/kg, control 134.3 ± 22.1): 82.0 ± 21.3 s |
| O=c1c2cc(O)c(O)cc2oc2cc(O)c([C@@H]3O[C@H](CO)[C@@H](O)[C@H](O)[C@H]3O)c(O)c12 [Mangiferin, mangiferin] |  |  |  |  |  |  |  |  |  |  |  |  |  |  |  |  | Cmax [3, 6]: 889.36 ± 191.49 ng/mL; Tmax [3, 6]: 1.00 h; AUC(0-t) ([3]; Sprague-Dawley, rat, in vivo, po, 15 g/kg, AUC0–t): 4020 ± 397 ng·h/mL; Cmax ([3]; Sprague-Dawley, rat, in vivo, po, 15 g/kg, Cmax): 131 ng/g and 1760 ng/mL |
| C[C@H]1CC[C@@]2(OC1)O[C@H]1C[C@H]3[C@@H]4CC[C@@H]5C[C@@H](O[C@@H]6O[C@H](CO)[C@H](O)[C@H](O)[C@H]6O[C@@H]6O[C@H](CO)[C@@H](O)[C@H](O)[C@H]6O)CC[C@]5(C)[C@H]4CC[C@]3(C)[C@H]1[C@@H]2C [Timosaponin AIII, timosaponin AIII] |  |  |  |  | 10.3 | 583 ± 105 | 61.8 ± 25.6 | 4 | 9360 ± 244 | 20 | 12.2 | 156 ± 21.6 | 16 ± 5.16 | 4 | 11.2 | 73.20 | ER (liver extraction ratio) ([3]; rats, oral BZD 15 g/kg, listed as timosaponin AIII): 73.21% |
| C[C@@H](CC[C@@]1(O)O[C@H]2C[C@H]3[C@@H]4CC[C@@H]5C[C@@H](O[C@@H]6O[C@H](CO)[C@H](O)[C@H](O)[C@H]6O[C@@H]6O[C@H](CO)[C@@H](O)[C@H](O)[C@H]6O)CC[C@]5(C)[C@H]4CC[C@]3(C)[C@H]2[C@@H]1C)CO[C@@H]1O[C@H](CO)[C@@H](O)[C@H](O)[C@H]1O [Timosaponin BII, timosaponin BII] | 716.5 ± 90.4 | 48.2 ± 23.1 | 196.9 ± 56.7 | 72.1 ± 19.6 | 119 | 1090 ± 184 | 880 ± 160 | 0.25 | 302 ± 102 | 0.08 | 116 | 976 ± 254 | 277 ± 48.4 | 0.25 | 35.8 | 10.88 | Cmax ([3]; Sprague-Dawley, rat, cerebellum, po, 15 g/kg, cerebellum, rats, oral BZD 15 g/kg, n = 5, read-out: Cmax): 1170 ± 93.4 ng/g; Tmax ([3]; Sprague-Dawley, rat, cerebellum, po, 15 g/kg, cerebellum, rats, oral BZD 15 g/kg, n = 5, read-out: Tmax): 0.25 h; half-life ([3]; Sprague-Dawley, rat, cerebellum, po, 15 g/kg, rats, oral BZD 15 g/kg, n = 5): 16.2 h; Cmax ([3]; Sprague-Dawley, rat, hippocampus, po, 15 g/kg, hippocampus, rats, oral BZD 15 g/kg, n = 5, read-out: Cmax): 372 ± 154 ng/g; Tmax ([3]; Sprague-Dawley, rat, hippocampus, po, 15 g/kg, hippocampus, rats, oral BZD 15 g/kg, n = 5, read-out: Tmax): 10 h; half-life ([3]; Sprague-Dawley, rat, hippocampus, po, 15 g/kg, rats, oral BZD 15 g/kg, n = 5): 27.4 h; ER (liver extraction ratio) ([3]; rats, oral BZD 15 g/kg, listed as timosaponin BII): 10.88%; antidepressant effect (depressive rats; depressive rats, likely related to the content of 5-HT in the brain): significant antidepressant effect |
| CC1=C(CC[C@H](C)CO[C@@H]2O[C@H](CO)[C@@H](O)[C@H](O)[C@H]2O)O[C@H]2C[C@H]3[C@@H]4CC[C@@H]5C[C@@H](O[C@@H]6O[C@H](CO)[C@H](O)[C@H](O)[C@H]6O[C@@H]6O[C@H](CO)[C@@H](O)[C@H](O)[C@H]6O)CC[C@]5(C)[C@H]4CC[C@]3(C)[C@@H]12 [Timosaponin BIII, timosaponin BIII] | 705.6 ± 47.7 | 58.4 ± 15.6 | 191.3 ± 69.8 | 68.6 ± 23.2 |  |  |  |  |  |  |  |  |  |  |  | 11.57 | Cmax [3, 18]: 349.41 ± 34.90 ng/g; T1/2 [3, 18]: 20.65 h; Tmax [3, 18]: 0.25 h; ER (liver extraction ratio) ([3]; rats, oral BZD 15 g/kg, listed as timosaponin BIII): 11.57%; Cmax [3, 19]: 198.23 ± 122.31 ng/g; T1/2 [3, 19]: 1.52 h; Tmax [3, 19]: 1.00 h; Cmax [3, 20]: 158.66 ± 22.12 ng/g; T1/2 [3, 20]: 13.81 h; Tmax [3, 20]: 0.08 h; AUC0–t [3, 21]: 369.20 ± 74.63 ng/mL; Cmax [3, 21]: 226.39 ± 43.92 ng/mL; T1/2 [3, 21]: 16.59 h; Tmax [3, 21]: 0.25 h; AUC0–t [3, 22]: 326.47 ± 54.29 ng/mL; Cmax [3, 22]: 114.14 ± 13.38 ng/mL; T1/2 [3, 22]: 22.82 h; Tmax [3, 22]: 0.25 h; antidepressant effect (depressive rats; rats, by regulating inflammatory cytokines, BNDF signaling and synaptic plasticity): significantly ameliorated depressive effects |

Source: PMC6757420, “Identifying the active components of Baihe–Zhimu decoction that ameliorate depressive disease by an effective integrated strategy: a systemic pharmacokinetics study combined with classical depression model tests” (Chinese Medicine, 2019)
